In patent publication US20230012368A1 (Hoffmann-La Roche Inc., priority 2018, published 2023):
Structures can show the parent of a compound that is named as a salt.

Each molecule was assayed on Acinetobacter baumannii ATCC 17978 (assay: Antimicrobial susceptibility testing: 90% growth inhibitory concentration (IC90) determination). Conditions: 90% growth inhibitory concentration; Acinetobacter baumannii ATCC17978; Iso-Sensitest broth, OD 600 nm over 16h; read-out: ATCC17978 IC90.
Type: cell-based
Description: Antimicrobial Susceptibility Testing:
90% Growth Inhibitory Concentration (IC90) Determination
The in vitro antimicrobial activity of the compounds was determined according to the following procedure:
The assay used a 10-points Iso-Sensitest broth medium to measure quantitatively the in vitro activity of the compounds against Acinetobacter baumannii ATCC 17978 and Acinetobacter baumannii ATCC 17961.
Stock compounds in DMSO were serially twofold diluted (e.g. range from 50 to 0.097 μM final concentration) in 384 wells microtiter plates and inoculated with 49 μl the bacterial suspension in Iso-Sensitest medium to have a final cell concentration of ˜5×10^(5) CFU/ml in a final volume/well of 50 ul/well. Microtiter plates were incubated at 35±2° C.
Bacterial cell growth was determined with the measurement of optical density at λ=600 nm each 20 minutes over a time course of 16h. Growth inhibition was calculated during the logarithmic growth of the bacterial cells with determination of the concentration inhibiting 50% (IC50) and 90% (IC90) of the growth.
Table 1 provides the 90% growth inhibitory concentrations (IC90) in micromoles per liter of the compounds of present invention obtained against the strain Acinetobacter baumannii ATCC17978 and Acinetobacter baumannii ATCC17961.

SMILES | IC90
COc1ccc(-c2cnc3c(Nc4ccc(C(=O)NCCCCCCCN)c(C)c4)nccn23)c(F)c1F [Example 516, N-(7-aminoheptyl)-4-((3-(2,3-difluoro-4-methoxyphenyl)imidazo[1,2-a]pyrazin-8-yl)amino)-2-methylbenzamide hydrochloride] | 34 nM

Same assay, conditions: Acinetobacter baumannii, ATCC17978, 16 h, 90% growth inhibitory concentration; Acinetobacter baumannii ATCC17978; Iso-Sensitest broth, OD 600 nm over 16h; read-out: ATCC17978 IC90

SMILES | IC90
COc1ccc(-c2cnc3c(Nc4ccc(C(=O)N[C@H](C)CNC(=N)C(C)C)c(C)c4)nccn23)c(F)c1F [Example 498, 4-[[3-(2,3-difluoro-4-methoxyphenyl)imidazo[1,2-a]pyrazin-8-yl]amino]-2-methyl-#N!-[(2#R!)-1-(2-methylpropanimidoylamino)propan-2-yl]benzamide] | 140 nM
CCc1cc(Nc2nccn3c(-c4ccc(OC)c(F)c4F)cnc23)ccc1C(=O)NCCNC(=O)CCCNCCCN [Example 564, N-(2-(4-((3-aminopropyl)amino)butanami-do)ethyl)-4-((3-(2,3-difluoro-4-methoxyphenyl)imidazo[1,2-a]pyrazin-8-yl)amino)-2-ethylbenzamide trihydrochloride] | 500 nM
N#CCOc1ccc(-c2cnc3c(Nc4ccc(C(=O)NCCc5ccncc5)c(Cl)c4)nccn23)c(F)c1Cl [Example 80, 2-chloro-4-[[3-[3-chloro-4-(cyanomethoxy)-2-fluoro-phenyl]imidazo[1,2-a]pyrazin-8-yl]amino]-N-[2-(4-pyridyl)ethyl] benzamide] | 270 nM
CCc1cc(Nc2nccn3c(-c4ccc(OC)c(F)c4F)cnc23)ccc1C(=O)NCc1ccncc1 [Example 560, 4-((3-(2,3-difluoro-4-methoxyphenyl)imidazo[1,2-a]pyrazin-8-yl)amino)-2-ethyl-N-(pyridin-4-ylmethyl)benzamide formate] | 80 nM
CNC(=O)c1ccc(Nc2nccn3c(-c4ccc(OC)c(F)c4F)cnc23)cc1C [Example 538, 4-((3-(2,3-difluoro-4-methoxyphenyl)imidazo[1,2-a]pyrazin-8-yl)amino)-N,2-dimethylbenzamide] | 27 nM
CNC(=O)c1ccc(Nc2nccn3c(-c4ccc(OC)cc4)cnc23)cc1C [Example 14, 4-((3-(4-methoxyphenyl)imidazo [1,2-a]pyrazin-8-yl)amino)-N,2-dimethylbenzamide] | 120 nM
COc1ccc(-c2cnc3c(Nc4ccc(C(=O)N5CCC(C(=O)NCC6CN(C)C6)CC5)c(C)c4)nccn23)cc1F [REF 114, 1-(4-((3-(3-fluoro-4-methoxyphenyl)imidazo [1,2-a]pyrazin-8-yl)amino)-2-methylbenzoyl)-N-((1-methylazetidin-3-yl)methyl)piperidine-4-carboxamide] | 470 nM
COc1ccc(-c2cnc3c(Nc4ccc(C(=O)NC[C@H](N)CNC(=O)[C@@H]5C[C@@H](O)CN5)c(C)c4)nccn23)c(F)c1F [Example 469, (2S,4R)-N-[(2S)-2-amino-3-[[4-[[3-(2,3-difluoro-4-methoxy-phenyl)imidazo[1,2-a]pyrazin-8-yl]amino]-2-methyl-benzoyl]amino]propyl]-4-hydroxy-pyrrolidine-2-carboxamide; formic acid] | 500 nM
CCc1cc(Nc2nccn3c(-c4ccc(Oc5ccccn5)c(F)c4F)cnc23)ccc1C(=O)NCCNC(=O)CCN [Example 421, N-[2-(3-aminopropanoylamino)ethyl]-4-[[3-[2,3-difluoro-4-(2-pyridyloxy)phenyl]imidazo [1,2-a]pyrazin-8-yl]amino]-2-ethyl-benzamide; formic acid] | 440 nM
CN(CCCSc1nc(=O)c(=O)[nH]n1C)C(=O)c1ccc(Nc2nccn3c(-c4ccc(OCC#N)c(F)c4F)cnc23)cc1Cl [Example 395, 2-chloro-4-((3-(4-(cyanomethoxy)-2,3-difluorophenyl)imidazo[1,2-a]pyrazin-8-yl)amino)-N-methyl-N-(3-((2-methyl-5,6-dioxo-1,2,5,6-tetrahydro-1,2,4-triazin-3-yl)thio)propyl)benzamide] | 740 nM
Cc1cc(Nc2nccn3c(-c4ccc(Cl)c(F)c4F)cnc23)ccc1C(=O)NCCN [Example 249, N-(2-aminoethyl)-4-[[3-(4-chloro-2,3-difluorophenyl)imidazo[1,2-a]pyrazin-8-yl]amino]-2-methylbenzamide;hydrochlo-ride] | 2500 nM
COc1ccc(-c2cnc3c(Nc4ccc5c(c4)CCN(CCO)C5=O)nccn23)c(F)c1F [Example 302, 6-[[3-(2,3-difluoro-4-methoxyphenyl)imidazo[1,2-a]pyrazin-8-yl]amino]-2-(2-hydroxyethyl)-3,4-dihydroisoquinolin-1-one] | 300 nM
CCc1cc(Nc2nccn3c(-c4ccc(OCC#N)c(F)c4F)cnc23)ccc1C(=O)NCCNC(=O)[C@@H](N)CCN [Example 144, 4-[[3-[4-(cyanomethoxy)-2,3-difluoro-phenyl]imidazo[1,2-a]pyrazin-8-yl]amino]-N-[2-[[(2S)-2,4-diaminobutanoyl]amino]ethyl]-2-ethyl-benzamide formate] | 90 nM
CCc1cc(Nc2nccn3c(-c4ccc(OC)c(F)c4F)cnc23)ccc1C(=O)NCC(O)CNC(=O)CCCN (centres unmarked) [Example 410, N-(3-(4-aminobutanamido)-2-hydroxypropyl)-4-((3-(2,3-difluoro-4-methoxyphenyl)imidazo[1,2-a]pyrazin-8-yl)amino)-2-ethylbenzamide hydrochloride] | 210 nM
CCc1cc(Nc2nccn3c(-c4ccc(OCC#N)c(F)c4Cl)cnc23)ccc1C(=O)NCCNC(=O)[C@H](N)CCCNC(=N)N [Example 127, N-[2-[[(2R)-2-amino-5-guanidino-pentanoyl]amino]ethyl]-4-[[3-[2-chloro-4-(cyanomethoxy)-3-fluoro-phenyl]imidazo[1,2-a]pyrazin-8-yl]amino]-2-ethyl-benzamide formate] | 90 nM
COc1ccc(-c2cnc3c(Nc4ccc(C(=O)NCCN5CCNCC5)c(Cl)c4)nccn23)cc1F [Example 188, 2-chloro-4-[[3-(3-fluoro-4-methoxyphenyl)imidazo[1,2-a]pyrazin-8-yl]amino]-N-(2-piperazin-1-ylethyl)benzamide;hydrochlo-ride] | 270 nM
COc1ccc(-c2cnc3c(Nc4ccc(C(=O)NCC5CCN(C(=N)N)CC5)c(C)c4)nccn23)cc1Cl [Example 82, N-((1-carbamimidoyl-piperidin-4-yl)methyl)-4-((3-(3-chloro-4-methoxyphenyl)imidazo [1,2-a]pyrazin-8-yl)amino)-2-methylbenzamide] | 270 nM
COc1ccc(-c2cnc3c(Nc4ccc(C(=O)NCCCN5CCNC(C(=O)O)C5)c(C)c4)nccn23)cc1F (centres unmarked) [Example 2, 4-(3-(4-((3-(3-fluoro-4-methoxyphenyl)imidazo [1,2-a]pyrazin-8-yl)amino)-2-methylbenzamido)propyl) piperazine-2-carboxylic acid] | 4600 nM
COc1ccc(-c2cnc3c(Nc4ccc(C(=O)N[C@H](CO)Cc5cnc[nH]5)c(C)c4)nccn23)cc1F [Example 383, 4-[[3-(3-fluoro-4-methoxyphenyl)imidazo[1,2-a]pyrazin-8-yl]amino]-N-[(2S)-1-hydroxy-3-(1H-imidazol-5-yl)propan-2-yl]-2-methylbenzamide] | 820 nM
COc1ccc(-c2cnc3c(Nc4ccc(C(=O)N(C)CC(=O)N5CCNC(=O)C5)c(C)c4)nccn23)cc1F [Example 6] | 640 nM
CN(CCN1CCNCC1)C(=O)c1ccc(Nc2nccn3c(-c4ccc(OC(F)F)cc4)cnc23)cc1Cl [Example 203, 2-chloro-4-[[3-[4-(difluoromethoxy)phenyl]im-idazo[1,2-a]pyrazin-8-yl]amino]-N-methyl-N-(2-piperazin-1-ylethyl)benzamide; hydrochlo-ride] | 460 nM
CCN(C(=O)NCCCN(C)C)C(=O)c1ccc(Nc2nccn3c(-c4ccc(OCC#N)c(F)c4F)cnc23)cc1Cl [REF 149, 2-chloro-4-[[3-[4-(cyanomethoxy)-2,3-difluoro-phenyl]imidazo[1,2-a]pyrazin-8-yl]amino]-N-[3-(dimethylamino)propylcarbamoyl]-N-ethyl-benzamide] | 450 nM
CN(CCN1CCNCC1)C(=O)c1ccc(Nc2nccn3c(-c4ccc(OCC#N)c(F)c4F)cnc23)cc1Cl [Example 74, 2-chloro-4-((3-(4-(cyanomethoxy)-2,3-difluorophenyl)imidazo [1,2-a]pyrazin-8-yl)amino)-N-methyl-N-(2-(piperazin-1-yl)ethyl)benzamide] | 60 nM
CCc1cc(Nc2nccn3c(-c4ccc(OC)c(F)c4F)cnc23)ccc1C(=O)NC[C@@H]1CCNC1 [Example 529, (R)-4-((3-(2,3-difluoro-4-methoxyphenyl)imidazo[1,2-a]pyrazin-8-yl)amino)-2-ethyl-N-(pyrrolidin-3-ylmethyl)benzamide hydrochloride] | 110 nM
Cc1cc(Nc2nccn3c(-c4ccc(OC(F)F)cc4)cnc23)ccc1C(=O)N(C)CC(=O)N1CCN(C)CC1 [Example 170, 4-[[3-[4-(difluoromethoxy)phenyl]im-idazo[1,2-a]pyrazin-8-yl]amino]-N,2-dimethyl-N-[2-(4-methylpiperazin-1-yl)-2-oxoethyl]benzamide] | 1900 nM
